Test results reported in patent US20260306403A1, “MODIFIED LIPOSOME FOR DRUG DELIVERY, USE OF LIPOSOME FOR DRUG DELIVERY, ESPECIALLY WITH ANTI-CANCER ACTIVITY, AND WAYS TO LOAD LIPOSOME WITH DRUGS, ESPECIALLY WITH ANTI-CANCER ACTIVITY” (BS BIOTECHNA SPOLKA AKCYJNA, priority 2023, published 2026).

Key:
[1] = Acute toxicity test on Zebrafish larvae, emetine and 14 pH EM liposomes, 24 and 48 h; parameters: species or system Zebrafish (Danio rerio); settings: in vivo, 48 h exposure, 2 dpf larvae, calculated for emetine, read-out: half maximal lethal concentration (LC50)
Description: In order to compare the toxicity of emetine and 14 pH EM liposomes with emetine, an acute toxicity test was conducted on Zebrafish (Danio rerio). The test was designed to determine the acute or lethal toxicity of the formulations on the embryonic stages of the fish. Briefly, Zebrafish 2 dpf larvae were treated with emetine and 14 pH EM liposomes with emetine for 24 and 48 hours at concentrations ranging from 0.73 μM to 125 μM calculated for emetine. […] The water for embryo culture and solution preparation was embryo culture medium (E3 solution: 5 mmol/L NaCl, 0.17 mmol/L KCl, 0.33 mmol/L CaCl2 and 0.33 mmol/L MgSO4, containing no methylene blue, and with a pH value of approximately 7.2). The experiment was carried out in 24-well plates, 5 embryos per well, 10 per group. The plate was covered and kept in an incubator set at 28±0.5° C. with a light/dark period of 12/12 hours. During the exposure period, larvae were tracked every 24 hours and four visual observations, including coagulation of fertilised eggs, lack of somite formation, lack of separation of tail bud from yolk sac and lack of heartbeat, were recorded as indicators of mortality.

[2] = phase I and II clinical trials; cited from earlier work
Zebrafish larvae = assay: Absorption of fluorescently labelled emetine, free and in pH-type liposomes, by Zebrafish larvae; type: in vivo
Description: To compare the uptake of emetine and pH-type liposomes with emetine, Zebrafish larvae were exposed to fluorescently labelled free emetine and fluorescently labelled emetine encapsulated in pH-type liposomes (synthesis identical to that of 14pHEM) for 4 and 48 h in a concentration range from 0.73 μM to 14.7 μM for emetine and 4.41 μM to 8.82 μM for pH-type liposomes with fluorescent emetine per emetine. Photographs of fish from each group were taken at the final time point to monitor the intensity of fluorescence from absorbed emetine. A Discovery V8 stereoscopic optical microscope and Zeiss equipment were used for the observations.

[3] = Acute toxicity test on Zebrafish larvae, emetine / BEM and staurosporine / BST liposomes, 96 h; type: in vivo, Zebrafish (Danio rerio); settings: 96 h incubation, staurosporine free or in BST
Description: In order to compare the toxicity of emetine and staurosporine with the same drugs loaded into BpH liposomes, an acute toxicity test was conducted on Zebrafish (Danio rerio). The test was designed to determine the acute or lethal toxicity of the chemicals on the embryonic stages of the fish. Briefly, zebrafish larvae were treated with emetine and […] liposomes or staurospoine and staurosporine with BST liposomes for a period of 96 hours.
The embryo culture fluid and solution preparation was embryo culture medium (E3 solution: 5 mmol/L NaCl, 0.17 mmol/L KCl, 0.33 mmol/L CaCl2 and 0.33 mmol/L MgSO4, containing no methylene blue, and with a pH value of approximately 7.2). The experiment was carried out in 24-well plates, 5 embryos per well, 10 per group. The plate was covered and kept in an incubator set at 28±0.5° C. with a light/dark period of 12/12 hours. During the exposure period, larvae were tracked every 24 h and four visual observations, including coagulation of fertilised eggs, lack of somite formation, lack of separation of tail bud from yolk sac and lack of heartbeat, were recorded as indicators of mortality. At the end of the exposure period (96 hpf), acute toxicity was determined based on a positive result from any of the four recorded visual observations and the LC50 was calculated. Liposomes alone without drug loading were also tested.

For `CC[C@H]1CN2CCc3cc(OC)c(OC)cc3[C@@H]2C[C@@H]1C[C@H]1NCCc2cc(OC)c(OC)cc21` [emetine], which LC50 at 48 h [1] is on record?
Its LC50 at 48 h is 5640 nM.

And the therapeutic index [2]?
Its therapeutic index is “very limited”.

What about the “toxicity on increasing the dose” value [2] of the same molecule?
The value was “cardiac toxicity”.

And the “location of absorbed emetine in larvae” value (Zebrafish larvae; fluorescence microscopy)?
Its value is “within the yolk of the larvae, especially in the liver and intestine region”.

What about the “uptake / amount of absorbed emetine” value (Zebrafish larvae; free 1.47, 3.67, 7.35 μM, in liposomes 4.41 and 8.82 μM) of the same molecule?
Its value is “increases with dose”.

With `CN[C@@H]1C[C@H]2O[C@@](C)([C@@H]1OC)n1c3ccccc3c3c4c(c5c6ccccc6n2c5c31)C(=O)NC4` [staurosporine] as the molecule, how does the LC50 at 96 h [3] read?
The LC50 at 96 h was 17 nM.
